pIC50: −log10 of the molar value. Where two headings read alike, the source gives them in different places.
Experiments:
Full length Human HDAC8 = target: T1, Full length Human HDAC8 (Homo sapiens, UniProt Q9BY41)
T1 sequence (Q9BY41 1-377): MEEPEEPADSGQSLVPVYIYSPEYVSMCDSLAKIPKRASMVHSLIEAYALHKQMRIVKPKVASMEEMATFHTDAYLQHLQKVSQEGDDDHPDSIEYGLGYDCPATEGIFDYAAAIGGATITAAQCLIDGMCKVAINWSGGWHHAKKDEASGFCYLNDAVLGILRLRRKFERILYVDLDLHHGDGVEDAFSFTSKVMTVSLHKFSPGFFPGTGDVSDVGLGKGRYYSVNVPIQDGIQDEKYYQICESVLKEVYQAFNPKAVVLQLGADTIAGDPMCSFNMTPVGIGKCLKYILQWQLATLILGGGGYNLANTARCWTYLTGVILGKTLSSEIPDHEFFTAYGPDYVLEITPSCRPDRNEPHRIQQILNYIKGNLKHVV

Full length Human HDAC10 = target: T2, Full length Human HDAC10 (Homo sapiens, UniProt Q969S8)
T2 sequence (Q969S8 1-669): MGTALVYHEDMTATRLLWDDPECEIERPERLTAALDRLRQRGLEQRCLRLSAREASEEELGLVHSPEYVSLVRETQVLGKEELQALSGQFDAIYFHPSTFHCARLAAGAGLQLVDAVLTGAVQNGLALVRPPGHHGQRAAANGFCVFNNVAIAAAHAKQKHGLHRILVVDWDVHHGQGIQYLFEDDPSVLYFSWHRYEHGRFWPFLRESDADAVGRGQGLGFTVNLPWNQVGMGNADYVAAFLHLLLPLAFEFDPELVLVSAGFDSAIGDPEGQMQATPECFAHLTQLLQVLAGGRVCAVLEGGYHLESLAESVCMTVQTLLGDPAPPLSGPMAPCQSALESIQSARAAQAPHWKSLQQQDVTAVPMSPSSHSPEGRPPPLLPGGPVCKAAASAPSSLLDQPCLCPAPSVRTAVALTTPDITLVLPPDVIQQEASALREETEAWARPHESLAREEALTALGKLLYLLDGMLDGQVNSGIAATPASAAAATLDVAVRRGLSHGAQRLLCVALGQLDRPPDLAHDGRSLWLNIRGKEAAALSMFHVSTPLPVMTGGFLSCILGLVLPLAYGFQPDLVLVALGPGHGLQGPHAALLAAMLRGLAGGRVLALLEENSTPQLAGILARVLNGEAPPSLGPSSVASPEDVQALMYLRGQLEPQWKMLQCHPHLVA

Human HDAC7 aa 518-end = target: T3, Human HDAC7 aa 518-end (Homo sapiens, UniProt Q8WUI4)
T3 sequence (Q8WUI4 518-952 limits assumed): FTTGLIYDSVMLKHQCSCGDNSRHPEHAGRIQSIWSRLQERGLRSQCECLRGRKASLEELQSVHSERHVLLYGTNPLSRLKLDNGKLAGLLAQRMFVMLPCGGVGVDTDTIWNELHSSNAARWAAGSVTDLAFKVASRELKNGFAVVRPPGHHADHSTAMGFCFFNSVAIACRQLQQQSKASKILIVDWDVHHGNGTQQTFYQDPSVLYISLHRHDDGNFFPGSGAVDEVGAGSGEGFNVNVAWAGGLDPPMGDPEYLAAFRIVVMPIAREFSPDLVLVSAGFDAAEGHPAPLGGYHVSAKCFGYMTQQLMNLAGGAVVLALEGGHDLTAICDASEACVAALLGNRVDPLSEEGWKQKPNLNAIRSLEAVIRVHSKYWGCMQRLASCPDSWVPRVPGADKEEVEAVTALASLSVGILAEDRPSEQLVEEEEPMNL

Full length Human HDAC6 = target: T4, Full length Human HDAC6 (Homo sapiens, UniProt Q9UBN7)
T4 sequence (Q9UBN7 1-1215): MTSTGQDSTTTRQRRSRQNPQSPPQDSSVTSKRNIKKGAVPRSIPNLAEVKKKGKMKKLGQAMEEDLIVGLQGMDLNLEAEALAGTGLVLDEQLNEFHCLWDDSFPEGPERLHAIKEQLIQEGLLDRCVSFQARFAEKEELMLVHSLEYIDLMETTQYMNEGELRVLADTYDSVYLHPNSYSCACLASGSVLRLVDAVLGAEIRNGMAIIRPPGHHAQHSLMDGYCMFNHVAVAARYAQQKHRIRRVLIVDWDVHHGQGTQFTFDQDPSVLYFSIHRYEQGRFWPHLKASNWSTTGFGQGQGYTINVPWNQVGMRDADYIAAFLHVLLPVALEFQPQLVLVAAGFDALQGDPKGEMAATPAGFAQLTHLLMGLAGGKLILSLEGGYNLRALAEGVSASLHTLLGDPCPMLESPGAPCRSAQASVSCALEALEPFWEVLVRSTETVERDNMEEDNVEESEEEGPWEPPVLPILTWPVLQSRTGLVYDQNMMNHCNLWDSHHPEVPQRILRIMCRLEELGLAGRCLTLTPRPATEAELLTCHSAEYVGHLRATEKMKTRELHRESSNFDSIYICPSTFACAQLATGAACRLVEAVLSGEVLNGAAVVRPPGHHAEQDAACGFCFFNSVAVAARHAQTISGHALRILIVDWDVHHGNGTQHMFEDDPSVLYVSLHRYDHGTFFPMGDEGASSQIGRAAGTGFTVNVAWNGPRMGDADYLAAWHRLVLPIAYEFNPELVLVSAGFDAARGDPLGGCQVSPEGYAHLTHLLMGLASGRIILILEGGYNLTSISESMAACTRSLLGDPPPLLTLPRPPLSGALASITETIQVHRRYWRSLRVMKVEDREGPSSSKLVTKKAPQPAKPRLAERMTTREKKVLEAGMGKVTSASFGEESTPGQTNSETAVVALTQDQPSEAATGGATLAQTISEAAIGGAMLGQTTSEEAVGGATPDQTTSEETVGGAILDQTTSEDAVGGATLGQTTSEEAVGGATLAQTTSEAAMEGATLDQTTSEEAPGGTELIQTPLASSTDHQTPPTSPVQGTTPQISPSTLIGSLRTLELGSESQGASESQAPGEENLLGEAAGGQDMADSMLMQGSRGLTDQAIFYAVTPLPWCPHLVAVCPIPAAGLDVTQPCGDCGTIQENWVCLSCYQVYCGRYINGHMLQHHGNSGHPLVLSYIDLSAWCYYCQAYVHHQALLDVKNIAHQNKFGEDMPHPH

[1] = read-out: In vitro enzymatic IC50, HDAC Paralog 8, Table 2
[2] = read-out: In vitro enzymatic IC50, HDAC Paralog 6, Table 2

SMILES	pIC50 (Full length Human HDAC8)	pIC50 (Full length Human HDAC8; [1])	pIC50 (Full length Human HDAC10)	pIC50 (Human HDAC7 aa 518-end)	pIC50 (Full length Human HDAC6)	pIC50 (Full length Human HDAC6; [2])
O=C(NO)c1ccc(CN2CC3CCC2CO3)c(F)c1 (stereo not shown) [compound 58]	6.00 to 7.00	6.00 to 7.00	4.00 to 5.00	5.00 to 6.00	7.00 to 9.00	7.00 to 9.00
O=C(NO)c1ccc(CN2CC3CCC(C2)O3)c(F)c1 [compound 53]	6.00 to 7.00	6.00 to 7.00	5.00 to 6.00	6.00 to 7.00	7.00 to 9.00	7.00 to 9.00
O=C(NO)c1cc(F)c2c(c1)CCN(Cc1ccccc1)C2 [compound 32]	5.00 to 6.00	5.00 to 6.00	4.00 to 5.00	5.00 to 6.00	7.00 to 9.00	7.00 to 9.00
O=C(NO)c1cc(F)c2c(c1)C[C@H]1CCCCN1C2 (single isomer, unassigned) [compound 94]	5.00 to 6.00	–	< 4.00	5.00 to 6.00	6.00 to 7.00	–
O=C(NO)c1cc(F)c2c(c1)C[C@@H]1CCCCN1C2 (single isomer, unassigned) [compound 93]	5.00 to 6.00	–	4.00 to 5.00	5.00 to 6.00	7.00 to 9.00	–
O=C(NO)c1cc(F)c2c(c1)CCN(C1CC3(CCCCC3)C1)C2 [compound 16]	4.00 to 5.00	4.00 to 5.00	4.00 to 5.00	4.00 to 5.00	7.00 to 9.00	7.00 to 9.00
O=C(NO)c1cc(F)c2c(c1)CCN(CC13CC4CC(CC(C4)C1)C3)C2 [compound 34]	4.00 to 5.00	4.00 to 5.00	4.00 to 5.00	4.00 to 5.00	7.00 to 9.00	7.00 to 9.00
O=C(NO)c1cc(F)c2c(c1)CCN1CCC[C@@H]21 (single isomer, unassigned) [compound 79]	5.00 to 6.00	–	4.00 to 5.00	6.00 to 7.00	7.00 to 9.00	–
O=C(NO)c1ccc2c(c1)CN1CCCCN1C2 [compound 106, N-hydroxy-1,2,3,4,6,11-hexahydropyridazino[1,2-b]phthalazine-8-carboxamide]	5.00 to 6.00	5.00 to 6.00	< 4.00	4.00 to 5.00	6.00 to 7.00	6.00 to 7.00
O=C(NO)c1ccc(CN2CCC3(CCCCC3)C2)c(F)c1 [compound 75, 4-((2-Azaspiro[4.5]decan-2-yl)methyl)-3-fluoro-N-hydroxybenzamide]	5.00 to 6.00	5.00 to 6.00	4.00 to 5.00	5.00 to 6.00	7.00 to 9.00	7.00 to 9.00
O=C(NO)c1ccc(CN2C[C@H]3CC[C@@H]2CO3)c(F)c1 (single isomer, unassigned) [compound 173]	5.00 to 6.00	–	4.00 to 5.00	5.00 to 6.00	7.00 to 9.00	–
O=C(NO)c1ccc(CN2C[C@@H]3CC[C@H]2CO3)c(F)c1 (single isomer, unassigned) [compound 172]	5.00 to 6.00	5.00 to 6.00	< 4.00	5.00 to 6.00	7.00 to 9.00	7.00 to 9.00
